Measured values as given in US7625948B2, “Ester compound and medicinal use thereof” (Japan Tobacco Inc., priority 2002, dated 2009).

Columns and labels:
Syrian hamsters = test: Test Example 3: olive oil-loading test (inhibition of fat absorption, plasma TG); type: in vivo; settings: Mesocricetus auratus, po; 100 mg/kg p.o.; plasma TG 4 hours after olive oil; read-out: Test Example 3 Inhibition of fat absorption after olive oil-loading in Hamster Inhibition rate (%)
HepG2 cells = test: Test Example 2: inhibition of apolipoprotein B secretion from HepG2 cells, ELISA (also used for metabolites in Test Example 8); type: cell-based; settings: Homo sapiens, 24 hours, apo B in supernatant by ELISA, read-out: Test Example 2 Inhibition of apo B secretion IC50
Outline: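 HepG2 cells cultured 24 h, then exposed 24 h to compounds or metabolites in medium with 0.5% DMSO. Secreted apo B in supernatant quantified by sandwich ELISA (HRP, ABTS, 405 nm) against purified human apo B standard; % inhibition vs DMSO group, IC50 derived.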

[1] = target: T1, Microsomal triglyceride transfer protein (MTP) from bovine liver (Bos taurus, UniProt P55156); test: Test Example 1: inhibition of interliposomal triglyceride (TG) transfer activity by MTP (also used for metabolites in Test Example 8); type: biochemical; settings: MTP-mediated 14C-triolein transfer between liposomes, 37° C., one hour; read-out: Test Example 1 MTP inhibition IC50
T1 construct: from tissue; host or cells: bovine liver
T1 sequence (P55156 12-887): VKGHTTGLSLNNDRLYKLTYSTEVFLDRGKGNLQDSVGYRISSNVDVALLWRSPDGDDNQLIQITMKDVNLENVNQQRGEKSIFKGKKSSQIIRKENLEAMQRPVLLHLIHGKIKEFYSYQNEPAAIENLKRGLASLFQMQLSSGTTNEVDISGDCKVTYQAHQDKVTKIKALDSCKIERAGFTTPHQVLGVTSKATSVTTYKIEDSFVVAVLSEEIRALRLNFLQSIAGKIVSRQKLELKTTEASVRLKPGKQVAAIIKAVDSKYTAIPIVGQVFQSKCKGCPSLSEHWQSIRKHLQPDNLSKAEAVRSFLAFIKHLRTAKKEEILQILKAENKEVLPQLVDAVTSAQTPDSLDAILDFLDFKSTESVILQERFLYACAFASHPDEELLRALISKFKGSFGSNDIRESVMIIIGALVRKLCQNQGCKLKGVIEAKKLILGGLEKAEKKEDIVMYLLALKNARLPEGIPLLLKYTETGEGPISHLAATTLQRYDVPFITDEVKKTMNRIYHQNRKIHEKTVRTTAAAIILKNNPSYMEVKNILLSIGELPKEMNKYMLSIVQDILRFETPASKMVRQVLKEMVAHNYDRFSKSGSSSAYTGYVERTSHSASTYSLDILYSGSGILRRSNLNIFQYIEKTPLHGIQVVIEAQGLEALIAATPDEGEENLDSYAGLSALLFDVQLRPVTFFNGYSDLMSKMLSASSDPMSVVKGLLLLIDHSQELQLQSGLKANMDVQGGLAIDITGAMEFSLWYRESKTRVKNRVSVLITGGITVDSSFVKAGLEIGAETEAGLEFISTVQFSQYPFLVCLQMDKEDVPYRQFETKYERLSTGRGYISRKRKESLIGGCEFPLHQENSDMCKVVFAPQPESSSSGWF
T1 sequence (P05307 21-510 partner): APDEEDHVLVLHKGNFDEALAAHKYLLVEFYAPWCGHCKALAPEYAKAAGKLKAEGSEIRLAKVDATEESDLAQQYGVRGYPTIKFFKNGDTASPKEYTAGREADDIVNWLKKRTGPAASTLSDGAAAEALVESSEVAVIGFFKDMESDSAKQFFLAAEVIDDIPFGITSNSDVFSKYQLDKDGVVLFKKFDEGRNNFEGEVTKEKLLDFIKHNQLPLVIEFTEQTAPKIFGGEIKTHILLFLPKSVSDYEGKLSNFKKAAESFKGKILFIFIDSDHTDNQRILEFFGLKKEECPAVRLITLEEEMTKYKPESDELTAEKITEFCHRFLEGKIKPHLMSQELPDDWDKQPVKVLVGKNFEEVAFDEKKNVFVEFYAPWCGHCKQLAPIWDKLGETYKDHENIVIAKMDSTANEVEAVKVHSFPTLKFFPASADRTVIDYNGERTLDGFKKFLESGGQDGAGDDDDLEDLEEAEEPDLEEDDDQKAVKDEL
Outline: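 Partially purified bovine liver MTP (DEAE chromatography) incubated 1 h at 37 °C, pH 7.4, with ^14C-triolein-labelled donor SUVs and unlabelled acceptor SUVs plus compound in DMSO. Acceptor radioactivity, blank-corrected, gave % inhibition versus DMSO; IC50 derived. Metabolites tested likewise.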

Japanese white rabbits = test: Test Example 5: combination use test in cholesterol-loaded rabbit model (plasma cholesterol); type: in vivo; settings: 1 mg/kg in high cholesterol diet, from grouping to the 4th day
Procedure: Japanese white rabbits (male, 19 weeks of age, JW, purchased from Kitayama Labes Co., Ltd.) were fed previously in such a way that they were fed a high cholesterol diet (0.3% cholesterol+3% peanut oil-added RC-4, Product of Oriental Yeast Co., Ltd.) of 70 g/day under limited feeding for one day. The rabbits thus fed were used as a cholesterol-loaded rabbit model, and the grouping of such model was carried out in such a way that there might be no variation in the amount of plasma cholesterol among each group (five rabbits/group). […] The rabbits were fed 70 g of each diet every morning. Blood was collected from auricular artery 6 hours after the feeding on the 4th day of the administration, and cholesterol level in plasma was assayed. In the table, increased amount of plasma cholesterol during from the time of grouping to the 4th day was shown.

Structure (SMILES)	inhibition in vivo at 100 mg/kg (Syrian hamsters)	IC50 (HepG2 cells)	IC50 [1]	Increased amount of total cholesterol (Japanese white rabbits)
CCOC(=O)C(COC(=O)Cc1ccc(NC(=O)c2ccccc2-c2ccc(C(F)(F)F)cc2)c(C)c1)(C(=O)OCC)c1ccccc1 [Example 1-3, 2-(2-{3-Methyl-4-[(4′-trifluoromethylbiphenyl-2-carbonyl)amino]phenyl}acetoxymethyl)-2-phenylmalonic acid diethyl ester]	65%	5.75 nM	4.7 nM	
CCNC(=O)C(COC(=O)Cc1ccc(NC(=O)c2ccccc2-c2ccc(C(F)(F)F)cc2)c(C)c1)(C(=O)NCC)c1ccccc1 [Example 1-45]	71%	0.46 nM	0.39 nM	
CC(C)CNC(=O)C(COC(=O)Cc1ccc(NC(=O)c2ccccc2-c2ccc(C(F)(F)F)cc2)cc1)(C(=O)NCC(C)C)c1ccccc1 [Example 1-66]	52%	9.3 nM	16 nM	
CCCNC(=O)C(COC(=O)Cc1ccc(NC(=O)c2ccccc2-c2ccc(C(F)(F)F)cc2)c(C)c1)(C(=O)NCCC)c1ccccc1 [Example 1-72]	54%	2.7 nM	0.44 nM	
CCNC(=O)C(CCOC(=O)Cc1cccc(NC(=O)c2ccccc2-c2ccc(C(F)(F)F)cc2)c1C)(C(=O)NCC)c1ccccc1 [Example 5-9]	78%	28 nM	4 nM	
CCCNC(=O)C(CCOC(=O)Cc1cccc(NC(=O)c2ccccc2-c2ccc(C(F)(F)F)cc2)c1C)(C(=O)NCCC)c1ccccc1 [Example 5-11]	64%	5.1 nM	1.3 nM	
CCC(C)(C)C(=O)O[C@H]1C[C@@H](C)C=C2C=C[C@H](C)[C@H](CC[C@@H]3C[C@@H](O)CC(=O)O3)[C@H]21 [Simvastatin, simvastatin, reference compound]				48.6 mg/dL
